Source: paper PMC11366232, “Metabolites profiling of Sapota fruit pulp via a multiplex approach of gas and ultra performance liquid chromatography/mass spectroscopy in relation to its lipase inhibition effect” (PeerJ, 2024)

Experiments:
yeast α-glucosidase = test system: T1, yeast α-glucosidase; test: p-nitrophenyl alpha-D-glucopyranoside hydrolysis, absorbance at […] nm; format: biochemical; conditions: unreliable (a separate IC50 is printed for each sample concentration; this row is the 5 mg/mL one); 5 mM pNPG; 100 mM phosphate pH 6.8; 37 °C; 20 min; enzyme source contradictory (yeast or intestinal)
T1 construct: gene MAL12; commercial native enzyme, Sigma-Aldrich; assay text says yeast, reagent list says intestinal

[1] = molecular target: T2, porcine pancreatic lipase (PL) enzyme type II (Sus scrofa, UniProt P00591); test: p-nitrophenyl butyrate hydrolysis, absorbance at […] nm; format: biochemical; conditions: unreliable (a separate IC50 is printed for each sample concentration; this row is the 5 mg/mL one); crude enzyme; pNPB 10 mM stock in acetonitrile; Tris-HCl pH 7.4; 37 °C; 5 min preincubation
T2 construct: gene PNLIP
T2 sequence (P00591 1-450): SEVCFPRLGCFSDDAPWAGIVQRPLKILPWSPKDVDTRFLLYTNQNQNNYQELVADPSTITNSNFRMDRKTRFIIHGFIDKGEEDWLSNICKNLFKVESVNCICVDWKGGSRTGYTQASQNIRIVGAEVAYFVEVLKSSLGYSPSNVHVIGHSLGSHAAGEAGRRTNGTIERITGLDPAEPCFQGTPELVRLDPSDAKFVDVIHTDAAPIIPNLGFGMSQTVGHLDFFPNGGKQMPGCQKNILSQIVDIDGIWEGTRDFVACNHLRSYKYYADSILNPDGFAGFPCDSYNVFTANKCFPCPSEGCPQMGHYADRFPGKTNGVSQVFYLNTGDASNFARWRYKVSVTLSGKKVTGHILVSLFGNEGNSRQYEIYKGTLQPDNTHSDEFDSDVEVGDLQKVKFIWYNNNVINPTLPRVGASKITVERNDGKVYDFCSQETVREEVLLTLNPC

Row | α-Glucosidase inhibitory Assay / Acarbose (yeast α-glucosidase) [mg/mL] | Pancreatic Lipase (PL) Inhibition Assay / Orlistat [1] [mg/mL] | SMILES
1 | 0.16 | – | C[C@H]1O[C@H](O[C@H]2[C@H](O)[C@@H](O)[C@@H](O[C@H]3[C@H](O)[C@@H](O)C(O)O[C@@H]3CO)O[C@@H]2CO)[C@H](O)[C@@H](O)[C@@H]1N[C@H]1C=C(CO)[C@@H](O)[C@H](O)[C@H]1O (some centres unmarked) [Acarbose]
2 | – | 0.08 | CCCCCCCCCCC[C@@H](C[C@@H]1OC(=O)[C@H]1CCCCCC)OC(=O)[C@H](CC(C)C)NC=O [Orlistat]
